Source: patent publication US5591758A, “Organic nitrates, processes for their preparation and their use in the treatment of cardiovascular diseases” (Laboratoires Hoechst, SA, priority 1991, dated 1997)
Where “and” joins values, the source holds several entries; their conditions need not be identical. Equal values may be shown once. Where a name gives a salt, the structure may show the parent alone.

Columns and labels:
thoracic aorta = test: Vasorelaxant effect on isolated vessels (rat thoracic aorta rings without endothelium, precontracted with noradrenalin); parameters: species or system Wistar rats
In short: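 Endothelium-denuded thoracic aorta rings from Wistar rats, held in Krebs-Ringer buffer (pH 7.4, 37 °C, 95% O2/5% CO2) under isometric tension and precontracted with 10^-7 M noradrenalin, received cumulative compound (10^-8 to 10^-4 M). Maximum relaxation given as percent; IC50 calculated when relaxation exceeded 50%.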

[1] = system: unanaesthetised hypertensive dogs; test: Haemodynamic effects in unanaesthetised hypertensive dogs; assay type: in vivo; parameters: Δdp/dt / Δdp/dt average: unit not given beside the values; ΔBPs / ΔBPd / ΔLVEDP / ΔBPs average / ΔBPd average / ΔLVEDP average / ΔHR average: unit not given here; details: for ΔBPd average / ΔBPs average / ΔHR average / ΔLVEDP average / Δdp/dt average: n = 3, 3 mg/kg p.o.; for ΔBPd / ΔBPs / ΔHR / ΔLVEDP / Δdp/dt: single dog
Procedure: Haemodynamic effects of the compounds according to the invention in unanaesthetised hypertensive dogs (n=3).
Table VI below and FIG. 1 show more particularly the change in the effect of compound (46) on the various haemodynamic parameters as a function of time, the compound being administered p.o. in a dosage of 3 mg/kg.

[2] = 3 mg/kg p.o., 10 min, monohydrochloride, 3 mg/kg
[3] = 3 mg/kg p.o., 20 min, monohydrochloride, 3 mg/kg
[4] = 3 mg/kg p.o., 30 min, monohydrochloride, 3 mg/kg
[5] = 3 mg/kg p.o., 60 min, monohydrochloride, 3 mg/kg
[6] = 3 mg/kg p.o., 90 min, monohydrochloride, 3 mg/kg
[7] = 3 mg/kg p.o., 120 min, monohydrochloride, 3 mg/kg
[8] = 3 mg/kg p.o., 180 min, monohydrochloride, 3 mg/kg
[9] = 3 mg/kg p.o., 240 min, monohydrochloride, 3 mg/kg
[10] = 3 mg/kg p.o., 300 min, monohydrochloride, 3 mg/kg
[11] = 3 mg/kg p.o., 360 min, monohydrochloride, 3 mg/kg

O=C(CNC(=O)[C@@H]1CSCN1)N[C@H]1CO[C@H]2[C@@H]1OC[C@@H]2O[N+](=O)[O-] [Compound 46, 5-[[2-[[(4-L-Thiazolidinyl)carbonyl]amino]-1oxoethyl]amino]-5-deoxy-2-O-nitro-1,4:3,6-dianhydro-L-iditol monohydrochloride]
Emax (thoracic aorta; Rattus norvegicus, maximum inhibition of noradrenalin effect, 10^-8 to 10^-4 M substance, read-out: Maximum Relaxation): 50% | IC50 (thoracic aorta; rat aorta, 10^-7 M noradrenalin contraction): 100 µM | lowering of left ventricular end-diastolic pressure (LVEDP) ([1]; 3 mg/kg p.o.): significant, pronounced and prolonged | lowering of systolic blood pressure (BPs) ([1]; 3 mg/kg p.o.): significant, pronounced and prolonged | ΔBPd average ([1]; 10 min): -3 | ΔBPs average ([1]; 10 min): -5 | ΔHR average ([1]; 10 min): 3 | ΔLVEDP average ([1]; 10 min): -1 | Δdp/dt average ([1]; 10 min): -167 | ΔBPd average ([1]; 20 min): 0 | ΔBPs average ([1]; 20 min): -2 | ΔHR average ([1]; 20 min): 17 | ΔLVEDP average ([1]; 20 min): -2 | Δdp/dt average ([1]; 20 min): 33 | ΔBPd average ([1]; 30 min): 2 | ΔBPs average ([1]; 30 min): -2 | ΔHR average ([1]; 30 min): 7 | ΔLVEDP average ([1]; 30 min): -1 | Δdp/dt average ([1]; 30 min): 100 | ΔBPd average ([1]; 60 min): 0 | ΔBPs average ([1]; 60 min): -22 | ΔHR average ([1]; 60 min): -7 | ΔLVEDP average ([1]; 60 min): -4 | Δdp/dt average ([1]; 60 min): 33 | ΔBPd average ([1]; 90 min): 3 | ΔBPs average ([1]; 90 min): -28 | ΔHR average ([1]; 90 min): 23 | ΔLVEDP average ([1]; 90 min): -5 | Δdp/dt average ([1]; 90 min): -33 | ΔBPd average ([1]; 120 min): 5 | ΔBPs average ([1]; 120 min): -28 | ΔHR average ([1]; 120 min): 33 | ΔLVEDP average ([1]; 120 min): -6 | Δdp/dt average ([1]; 120 min): 0 | ΔBPd average ([1]; 180 min): 8 | ΔBPs average ([1]; 180 min): -25 | ΔHR average ([1]; 180 min): 32 | ΔLVEDP average ([1]; 180 min): -5 | Δdp/dt average ([1]; 180 min): 0 | ΔBPd average ([1]; 240 min): 8 | ΔBPs average ([1]; 240 min): -30 | ΔHR average ([1]; 240 min): 27 | ΔLVEDP average ([1]; 240 min): -5 | Δdp/dt average ([1]; 240 min): -133 | ΔBPd average ([1]; 300 min): 8 | ΔBPs average ([1]; 300 min): -27 | ΔHR average ([1]; 300 min): 27 | ΔLVEDP average ([1]; 300 min): -2 | Δdp/dt average ([1]; 300 min): 33 | ΔBPd average ([1]; 360 min): 8 | ΔBPs average ([1]; 360 min): -23 | ΔHR average ([1]; 360 min): 13 | ΔLVEDP average ([1]; 360 min): -4 | Δdp/dt average ([1]; 360 min): -133 | ΔBPd [1, 2]: -5 and 0 | ΔBPs [1, 2]: -5 and 0 and -10 | ΔHR [1, 2]: 0 and 10 | ΔLVEDP [1, 2]: -1 and 0 and -2 | Δdp/dt [1, 2]: -100 and 0 and -400 | ΔBPd ([1]; 3 mg/kg p.o., 20 min): 0 | ΔBPs [1, 3]: 0 and -5 | ΔHR [1, 3]: 35 and 0 and 15 | ΔLVEDP [1, 3]: -3 and 0 and -2 | Δdp/dt [1, 3]: 300 and 0 and -200 | ΔBPd [1, 4]: 5 and 0 | ΔBPs [1, 4]: 0 and -5 | ΔHR [1, 4]: 0 and 10 | ΔLVEDP [1, 4]: 0 and -3 | Δdp/dt [1, 4]: 0 and 500 and -200 | ΔBPd [1, 5]: 5 and 0 and -5 | ΔBPs [1, 5]: -25 and -15 | ΔHR [1, 5]: 10 and -10 and -20 | ΔLVEDP [1, 5]: -7 and -3 | Δdp/dt [1, 5]: 0 and 500 and -400 | ΔBPd [1, 6]: 5 and 10 and -5 | ΔBPs [1, 6]: -30 and -25 | ΔHR [1, 6]: 35 and 45 and -10 | ΔLVEDP [1, 6]: -7 and -6 and -3 | Δdp/dt [1, 6]: -200 and 500 and -400 | ΔBPd [1, 7]: 5 and 10 and 0 | ΔBPs [1, 7]: -30 and -25 | ΔHR [1, 7]: 55 and 63 and -20 | ΔLVEDP [1, 7]: -9 and -7 and -2 | Δdp/dt [1, 7]: -400 and 800 | ΔBPd [1, 8]: 10 and 15 and 0 | ΔBPs [1, 8]: -15 and -25 and -35 | ΔHR [1, 8]: 35 and 40 and 20 | ΔLVEDP [1, 8]: -7 and -4 | Δdp/dt [1, 8]: -300 and 500 and -200 | ΔBPd [1, 9]: 10 and 15 and 0 | ΔBPs [1, 9]: -15 and -35 and -40 | ΔHR [1, 9]: 40 and 20 | ΔLVEDP [1, 9]: -7 and -5 and -4 | Δdp/dt [1, 9]: -500 and 500 and -400 | ΔBPd [1, 10]: 10 and 15 and 0 | ΔBPs [1, 10]: -15 and -45 and -40 | ΔHR [1, 10]: 45 and 40 and -5 | ΔLVEDP [1, 10]: -4 and 0 and -3 | Δdp/dt [1, 10]: -300 and 800 and -400 | ΔBPd [1, 11]: 10 and 15 and 0 | ΔBPs [1, 11]: -10 and -25 and -35 | ΔHR [1, 11]: 15 and 10 | ΔLVEDP [1, 11]: -5 and -3 and -4 | Δdp/dt [1, 11]: -500 and 500 and -400
